Experimental data reported in patent US20100261726A1, “TREATMENT OF AML” (priority 2002, published 2010).
Read-outs that look alike come from different tables or passages of the source.

Legend:
[1] = tested on: patient leukemic cells (AML samples); experiment: cells; type: cell-based
Experimental: (§1) After informed consent bone marrow and peripheral blood cells were obtained at diagnosis from 6 pediatric AML patients aged 0-18 years. The diagnosis is assessed by cytomorphology using FAB classification and immunophenotyping (Bennett J M et al., Br. J. Haematol. 33: 451-458, 1976). Mononuclear cells (MNC) are separated by Lymphoprep (Nycomed, Oslo, Norway) density gradients and cryopreserved in liquid nitrogen until use. Cryopreserved AML cells are thawed rapidly at 37° C., diluted in a 5× volume of normal calf serum (NCS) as described by Dokter W H et al., Leukemia 9: 425-432, 1995. The remaining pellet is T-cell depleted by sheep red blood cells and separated over lymphoprep density gradient. Remaining blast cell population contained more than 95% AML cells, hereafter referred to as AML cells and cultured in RPMI-1640 supplemented with penicillin/streptomycin and 10% fetal bovine serum.
For the leukemic samples (10,000 cells/well) of the patients a 3-day cell culture is used. […] The optical density (OD) is linearly related to the number of viable cells. Control wells contain leukemic cells only with culture media without drugs, and blank wells contain culture media only. […] The LC50 value (drug concentration needed to kill 50% of the leukemic cells) is used to compare the differences between patients and/or various drug combinations. LC50 value equation: ([% leukemic cell survival >50%]−50)/([% leukemic cell survival >50%]−[% leukemic cell survival <50%])×(drug concentration when leukemic cell survival <50%−drug concentration when leukemic cell survival >50%)+(drug concentration when leukemic cell survival >50%).

[2] = tested on: primary AML cells of pediatric AML patients; experiment: Patient leukemic cell survival counted by trypan blue exclusion; type: cell-based, human
Experimental: as §1
(§2) Before incubation with recombinant (rec) VEGF165 (Sigma, St. Louis, […].) and/or PTK787, AML cells and/or cell lines are serum starved for 4 hours in serum free medium (X-vivo 10, Biowhitaker, Brussels, Belgium). For proliferation experiments, cells are cultured in six-well plates (Corning-Costar Corp., Cambridge, Mass., USA), at a cell density of 1×10^5 cells per well in serum free medium (X-vivo-10) for 24 hours. Cells are treated (rec VEGF165 5-100 ng/mL) or untreated (media alone) and are cultured in the presence or absence of PTK787 (5-100 nM). After 24 hours viable cells (determined by trypan blue exclusion) are counted in triplicate using a hemocytometer. Each experiment is done in triplicate, and experiments with leukemic cell lines are repeated three times.
Correlations are calculated using the Spearman rank correlation coefficient (rho). A paired sample non-parametric test (Wilcoxon Signed Ranks test) is used to analyze the paired viable cells (with or without VEGF, as well as with or without PTK787). A significant difference is defined as a P-value <0.05.

[3] = tested on: A431 epidermoid, Ls174T colon, HT-29 colon, PC-3 prostate carcinoma; conditions: HT-29, PC-3 carcinomas; cited from earlier work
TF-1 cells [4] = experiment: Survival assay, viable cells counted by trypan blue exclusion after 24 hours; type: cell-based
Experimental: The cell lines HL-60, TF-1, K562 and U937 are obtained from American Type Culture Collection (Manassas, Va., USA) and cultured in RPMI-1640 (Roswell Park Memorial Institute) supplemented with penicillin/streptomycin and 10% fetal bovine serum (FBS, Hyclone, Logan, Utah, USA) for U937, K562 and HL-60 cells and supplemented with GM-CSF 1 ng/mL for TF-1 cells.
as §2

TF-1 cells [5] = experiment: Apoptosis shown by PI DNA labeling (cell cycle analysis); type: cell-based; conditions: dose-dependent, overnight culture, 5% in control wells
Experimental: Cells are washed with PBS and resuspended in 75% ethanol in PBS and kept at 4° C. for at least 30 minutes. Prior to analysis, cells are washed with PBS, resuspended and incubated for 30 minutes in 1 mg/mL RNase A in PBS and thereafter incubated in staining solution containing 0.05 mg/mL propidium iodide (Sigma), 1 mM EDTA and 0.1% Triton-X-100. The suspension is then passed through a nylon mesh filter and analyzed on Becton Dickinson FACScan.

K562 cells = experiment: Total cell kill assay (MTT), leukemic cell line; type: cell-based; conditions: PTK787 in different concentrations
HL-60 cells = experiment: Total cell kill assay (MTT), leukemic cell line; type: cell-based; conditions: PTK787 in different concentrations
Experimental: (§3) In vitro cellular drug resistance of leukemic HL-60 and TF-1 cells (10,000 cells/well) are assessed using a 2-day cell culture assay based on the principle that only viable cells are able to reduce 3-(4,5-dimethyl-2-thiazolyl)-2,5-diphenyl-tetrazolium bromide (MTT) (5 mg/mL in PBS added to each well for 4 hours) to a colored formazan product, measured spectrophotometrically at 520 nm. For the leukemic samples (10,000 cells/well) of the patients a 3-day cell culture is used. […] The optical density (OD) is linearly related to the number of viable cells. Control wells contain leukemic cells only with culture media without drugs, and blank wells contain culture media only. Percentage of cell survival is calculated at each drug concentration by the equation (mean OD treated wells/mean OD control wells)×100% after correction for the background found in the blank wells. The results are considered evaluable when the control wells still contain 70% or more leukemic cells (determined by MGG staining) after a 3-day culture period. The mean OD of the control wells after correction for the background at 3 days always exceeds 0.1 arbitrary units for valid results. The LC50 value (drug concentration needed to kill 50% of the leukemic cells) is used to compare the differences between patients and/or various drug combinations. […]

TF-1 cells [6] = experiment: Total cell kill assay (MTT), leukemic cell line; type: cell-based; conditions: PTK787 in different concentrations
Experimental: as §3

[7] = Homo sapiens, read-out: LC50 value, Patient No. 1, drug alone
[8] = Homo sapiens, read-out: LC50 value, Patient No. 1, with PTK787 5 nM
[9] = Homo sapiens, read-out: LC50 value, Patient No. 1, with PTK787 10 nM
[10] = Homo sapiens, read-out: LC50 value, Patient No. 1, with PTK787 25 nM
[11] = Homo sapiens, read-out: LC50 value, Patient No. 2, drug alone
[12] = Homo sapiens, read-out: LC50 value, Patient No. 2, with PTK787 5 nM
[13] = Homo sapiens, read-out: LC50 value, Patient No. 3, drug alone
[14] = Homo sapiens, read-out: LC50 value, Patient No. 3, with PTK787 5 nM
[15] = Homo sapiens, read-out: LC50 value, Patient No. 4, drug alone
[16] = Homo sapiens, read-out: LC50 value, Patient No. 4, with PTK787 5 nM
[17] = Homo sapiens, read-out: LC50 value, Patient No. 5, drug alone
[18] = Homo sapiens, read-out: LC50 value, Patient No. 5, with PTK787 5 nM
[19] = PTK787 (25 nM) plus exogenous VEGF165

Row | Structure (SMILES) | CC50 [1, 7] | CC50 [1, 8] | CC50 [1, 9] | CC50 [1, 10] | CC50 [1, 11] | CC50 [1, 12] | CC50 [1, 13] | CC50 [1, 14] | CC50 [1, 15] | CC50 [1, 16] | CC50 [1, 17] | CC50 [1, 18] | also measured
1 | Nc1ccn([C@@H]2O[C@H](CO)[C@@H](O)[C@@H]2O)c(=O)n1 [Cytarabine, cytarabine] | 400 µg/mL | 260 µg/mL | 250 µg/mL | 35 µg/mL | 5 µg/mL | 0.6 µg/mL | 4.7 µg/mL | 0.23 µg/mL | 1500 µg/mL | 560 µg/mL | 3 µg/mL | 0.24 µg/mL | CC50 ([1]; Homo sapiens, read-out: LC50 value, Patient No. 4, with PTK787 10 nM): 10 µg/mL; CC50 ([1]; Homo sapiens, read-out: LC50 value, Patient No. 4, with PTK787 25 nM): 0.2 µg/mL
2 | Clc1ccc(Nc2nnc(Cc3ccncc3)c3ccccc23)cc1 [PTK787] | – | – | – | – | – | – | – | – | – | – | – | – | decrease in cell survival, median [2, 19]: 15%; decrease in cell survival, range over patients [2, 19]: 0%-35.5%; decrease in cell survival, range over patients ([2]; PTK787 alone (25 nM)): 28.2%-75.4%; decrease in cell survival (cell death), median ([2]; PTK787 alone (25 nM), patient samples, p-value 0.043): 55.1%; growth of human carcinomas transplanted orthotopically into mice [3]: inhibits the growth; vessel density in the tumor tissues [3]: does reduce vessel density; TF-1 cell survival (TF-1 cells [4]; 25 nM PTK787, 24 hours): 21.9%; effect of PTK787 on cell survival on addition of rec VEGF (TF-1 cells [4]; 25 and 50 nM PTK787 plus rec VEGF, TF-1 cells): can be blocked; apoptosis (fraction of apoptotic cells) (TF-1 cells [5]): up to 12%; leukemic cell survival (K562 cells): no decrease at all; leukemic cell survival (HL-60 cells): up to 1%; leukemic cell survival (TF-1 cells [6]): up to 10%; CC50 ([1]; Patient No. 1, 72 hours, read-out: LC50 value): > 25 nM; CC50 ([1]; Patient No. 2, 72 hours, read-out: LC50 value): 7.3 nM; CC50 ([1]; Patient No. 3, 72 hours, read-out: LC50 value): 5.8 nM; CC50 ([1]; Patient No. 4, 72 hours, read-out: LC50 value): 25 nM; CC50 ([1]; Patient No. 5, 72 hours, read-out: LC50 value): 7.7 nM; CC50 ([1]; Patient No. 6, 72 hours, read-out: LC50 value): 14.5 nM
3 | O=C1c2c(O)ccc(O)c2C(=O)c2c(NCCNCCO)ccc(NCCNCCO)c21 [Mitoxantrone, mitoxantrone] | 0.23 µg/mL | 0.16 µg/mL | 0.19 µg/mL | 0.03 µg/mL | 0.0175 µg/mL | 6.1e-05 µg/mL | 0.043 µg/mL | 0.0004 µg/mL | 0.054 µg/mL | 2.3e-05 µg/mL | 0.0186 µg/mL | 6.1e-05 µg/mL | CC50 ([1]; Homo sapiens, read-out: LC50 value, Patient No. 5, with PTK787 10 nM): 8e-07 µg/mL
